According to publication PMC7156724, “Potent BRD4 inhibitor suppresses cancer cell-macrophage interaction” (Nature Communications, 2020):
Several values for one entry are separate records, joined by “and”; a condition that tells them apart may be missing. Equal entries are not always repeated. Where two headings read alike, the source gives them in different places.

Assays:
[1] = test system: HaCAT cells (immortalized human keratinocytes); experiment: MTS assay of non-cancerous cells; format: cell-based; design: Cell viability (Sup Fig.4a) / Cell viability (Sup Fig.4b) / Cell viability (Sup Fig.4b, 72h): unit not given here; conditions: for Cell viability (Sup Fig.4b): 48h
Description: Supplementary Figure 4. […] (a-c) MTS
assays of HaCAT cells (immortalized human keratinocytes) treated with the indicated concentration of
NHWD-870 for 24h (a), 48h (b) or 72h (c). Data are presented as mean ± SEM of 5 independent experiments.
p values were calculated from two-tailed, unpaired t tests. Source data are provided as a Source Data file.
37℃, 5% CO2. […]

[2] = In vivo pharmacokinetics study, rat; design: species or system SD rat
Description: 4–6 weeks old female BALB/c nude mice were used for most experiments, with the exception of 6–8 weeks old female C57BL/6 mice were used for B16F10 experiments, and 6–8 weeks old male BALB/c nude mice and SD rats were used for pharmacokinetic experiments. All animals were purchased from Shanghai SIPPR-Bk Lab Animal Co., Ltd. All animals were housed under a regimen of 12 h light/12 h dark cycles and specific pathogen-free conditions. 5×10^6 NCI-H526, ES-2, MDA-MB231, A2780, A375, B16F10, and TMD-8 cells (0.1 ml) were injected subcutaneously into female nude mice. The melanoma patient-derived xenograft model was derived from a human melanoma sample (BRAF, NARS and NF1 wild type, and p53 mutant) removed from a patient in Xiangya Hospital. Surgically removed tumor fragments were implanted subcutaneously into female NSG mice. When the tumors grew to ~1000 mm^3, they were harvested and cryopreserved or immediately re-implanted for expansion or experiments. Mouse body weight and tumor sizes were measured every 3 days. Once the tumors grew to 150–200 mm^3, mice were treated with the compounds as described in the Figures. 1 × 10^6 A2780 cells (1 ml) were injected into the abdominal cavity of nude mice. Ascitic volume and tumor weight were measured by an electronic balance. All the procedures were evaluated and approved by the Institutional Animal Care and Use Committee of Central South University and Yale University.
Supplementary Figure 7. Pharmacokinetic profile of NHWD-870 using mouse and rat models.
(a,b) Plasma concentrations of NHWD-870 in healthy (a) mouse and (b) rat after intravenous (IV, 1.75 mg/kg for mouse and 1 mg/kg for rat) and oral (PO, 5 mg/kg) administration. Values shown on the right panels are mean ± SEM from 3 different animals. (c,d) Mean concentrations of NHWD-870 in the lungs (c) and tumors (d) of H526 xenograft model at the indicated hours after oral administration of 3 mg/kg NHWD-870 and BMS-98615821 on day 21. These mice were administrated the indicated drug daily for 21 days. Data are represented as mean ± SEM of 3 independent experiments. Source data are provided as a Source Data file. […]
9. In vivo pharmacokinetics study. Mouse and SD rat models were used to evaluate pharmacokinetic property of NHWD-870. NHWD-870 was administrated […]
Concentration of drugs in plasma, lung and tumor tissues were measured for the indicated time. […]

[3] = male, SD, plasma, iv, 1 mg/kg, IV 1 mg/kg

## Cc1nnn(C)c1-c1cnc2c3c4cnn(C)c4ccc3n([C@H](c3ccccc3)C3CCOCC3)c2c1 [NHWD-870]
[1]; 24h, 48h or 72h
  effect on growth of HaCAT cells: minimal effects
[1]; 24h, 8 nM, 0.008 µM
  Cell viability (Sup Fig.4a): 96.6 and 101.8 and 89.4 and 88.3
[1]; 24h, 16 nM, 0.016 µM
  Cell viability (Sup Fig.4a): 98.4 and 107.6 and 95.8
[1]; 24h, 32 nM, 0.032 µM
  Cell viability (Sup Fig.4a): 83 and 93.4 and 105.5 and 99.6 and 95.5
[1]; 24h, 64 nM, 0.064 µM
  Cell viability (Sup Fig.4a): 112.7 and 111.1 and 101.6 and 109.8
[1]; 24h, 250 nM, 0.25 µM
  Cell viability (Sup Fig.4a): 109.5 and 106.5 and 97.6 and 108.3
[1]; 24h, 500 nM, 0.5 µM
  Cell viability (Sup Fig.4a): 119.6 and 110.7 and 109.3 and 105
[1]; 24h, 1000 nM, 1 µM
  Cell viability (Sup Fig.4a): 106.7 and 106.8 and 109.4 and 111.5
[1]; 8 nM, 0.008 µM
  Cell viability (Sup Fig.4b): 89.1 and 94.5 and 96.5
  Cell viability (Sup Fig.4b, 72h): 90.9 and 86.4 and 92.1 and 95.1
[1]; 16 nM, 0.016 µM
  Cell viability (Sup Fig.4b): 85.3 and 85.9 and 93.1 and 85.1
  Cell viability (Sup Fig.4b, 72h): 95.9 and 89.1 and 93.1
[1]; 32 nM, 0.032 µM
  Cell viability (Sup Fig.4b): 88.3 and 88.2
  Cell viability (Sup Fig.4b, 72h): 88.4 and 97.6 and 92.8 and 90.1
[1]; 64 nM, 0.064 µM
  Cell viability (Sup Fig.4b): 94.7 and 90.4 and 88.4
  Cell viability (Sup Fig.4b, 72h): 99.6 and 89.5 and 92.9
[1]; 250 nM, 0.25 µM
  Cell viability (Sup Fig.4b): 97.7 and 92.7 and 91.5
  Cell viability (Sup Fig.4b, 72h): 93.7 and 89.8 and 88
[1]; 500 nM, 0.5 µM
  Cell viability (Sup Fig.4b): 88 and 95 and 91.6 and 82.3
  Cell viability (Sup Fig.4b, 72h): 98.2 and 93.6 and 82.4 and 89.4
[1]; 1000 nM, 1 µM
  Cell viability (Sup Fig.4b): 88.6 and 81.5 and 80.9 and 84.8
  Cell viability (Sup Fig.4b, 72h): 74 and 86.3 and 92.4
[2]; IV 1 mg/kg
  AUCExtra: 2.21±0.73%
  AUMCExtra: 11.5±3.025%
[2]; IV 1 mg/kg, 1 mg/kg
  Cl: 3 L/h/kg
  T1/2: 0.9 h
[2]; IV bolus, 5 min, individual animals, LLOQ 1.00 ng/mL
  Plasma Conc.: 0.362 µg/mL and 0.355 µg/mL
[2]; IV bolus, 0.25 h, individual animals, LLOQ 1.00 ng/mL
  Plasma Conc.: 0.274 µg/mL and 0.247 µg/mL
[2]; IV bolus, 0.5 h, individual animals, LLOQ 1.00 ng/mL
  Plasma Conc.: 0.208 µg/mL and 0.167 µg/mL
[2]; IV bolus, 1 h, individual animals, LLOQ 1.00 ng/mL
  Plasma Conc.: 0.0981 µg/mL and 0.112 µg/mL
[2]; IV bolus, 2 h, individual animals, LLOQ 1.00 ng/mL
  Plasma Conc.: 0.0481 µg/mL and 0.0403 µg/mL
[2]; IV bolus, 4 h, individual animals, LLOQ 1.00 ng/mL
  Plasma Conc.: 0.00888 µg/mL and 0.00814 µg/mL
[2]; IV bolus, 8 h, individual animals, LLOQ 1.00 ng/mL
  Plasma Conc.: BQL
[2]; IV bolus, 24 h, individual animals, LLOQ 1.00 ng/mL
  Plasma Conc.: BQL
[2]; PO 5 mg/kg
  AUCExtra: 3.97±1.15%
  AUMCExtra: 11.8±2.615%
  Tlast: 8 h
[2]; PO, 0.25 h, individual animals, LLOQ 1.00 ng/mL
  Plasma Conc.: 0.0188 µg/mL and 0.0133 µg/mL
[2]; PO, 0.5 h, individual animals, LLOQ 1.00 ng/mL
  Plasma Conc.: 0.0583 µg/mL and 0.0339 µg/mL
[2]; PO, 1 h, individual animals, LLOQ 1.00 ng/mL
  Plasma Conc.: 0.117 µg/mL and 0.106 µg/mL and 0.0546 µg/mL
[2]; PO, 2 h, individual animals, LLOQ 1.00 ng/mL
  Plasma Conc.: 0.111 µg/mL and 0.0735 µg/mL
[2]; PO, 4 h, individual animals, LLOQ 1.00 ng/mL
  Plasma Conc.: 0.0481 µg/mL and 0.0459 µg/mL
[2]; PO, 6 h, individual animals, LLOQ 1.00 ng/mL
  Plasma Conc.: 0.0202 µg/mL and 0.0159 µg/mL and 0.0505 µg/mL
[2]; PO, 8 h, individual animals, LLOQ 1.00 ng/mL
  Plasma Conc.: 0.00696 µg/mL and 0.00435 µg/mL and 0.00956 µg/mL
[2]; PO, 24 h, individual animals, LLOQ 1.00 ng/mL
  Plasma Conc.: BQL
[2]; male, SD, plasma, IV 1 mg/kg
  AUC(0-inf): 0.331 ± 0.00645 µg·h/mL
  AUC(0-t): 0.323 ± 0.00555 µg·h/mL
  C0: 0.441 ± 0.0179 µg/mL
  MRT inf: 1.08 ± 0.021 h
  MRT last: 0.98 ± 0.045 h
[2]; male, SD, plasma, IV 1 mg/kg, read-out: Vdss
  Vd: 3.27 ± 0.0925 L/kg
[2]; male, SD, plasma, PO 5 mg/kg
  AUC(0-inf): 0.398 ± 0.00915 µg·h/mL
  AUC(0-t): 0.382 ± 0.0126 µg·h/mL
  Cmax: 0.101 ± 0.0118 µg/mL
  MRT inf: 3.28 ± 0.33 h
  MRT last: 3 ± 0.256 h
  Tmax: 1.67 ± 0.288 h
[2]; male, SD, plasma, PO 5 mg/kg, calculated using AUCinf with nominal dose
  bioavailability: 24%
[2]; [3]
  clearance: 3.02 ± 0.0579 L/h/kg
  half-life: 0.92 ± 0.0805 h
[2]; male, SD, plasma, iv, 1 mg/kg, IV bolus, 5 min, individual animals, LLOQ 1.00 ng/mL, read-out: Plasma Conc.
  concentration at 5 min: 0.392 µg/mL
[2]; male, SD, plasma, iv, 1 mg/kg, IV bolus, 0.25 h, individual animals, LLOQ 1.00 ng/mL, read-out: Plasma Conc.
  concentration at 0.25 h: 0.259 µg/mL
[2]; male, SD, plasma, iv, 1 mg/kg, IV bolus, 0.5 h, individual animals, LLOQ 1.00 ng/mL, read-out: Plasma Conc.
  concentration at 0.5 h: 0.168 µg/mL
[2]; male, SD, plasma, iv, 1 mg/kg, IV bolus, 1 h, individual animals, LLOQ 1.00 ng/mL, read-out: Plasma Conc.
  concentration at 1 h: 0.0961 µg/mL
[2]; male, SD, plasma, iv, 1 mg/kg, IV bolus, 2 h, individual animals, LLOQ 1.00 ng/mL, read-out: Plasma Conc.
  concentration at 2 h: 0.039 µg/mL
[2]; male, SD, plasma, iv, 1 mg/kg, IV bolus, 4 h, individual animals, LLOQ 1.00 ng/mL, read-out: Plasma Conc.
  concentration at 4 h: 0.00815 µg/mL
[2]; male, SD, plasma, iv, 1 mg/kg, IV bolus, 8 h, individual animals, LLOQ 1.00 ng/mL, read-out: Plasma Conc.
  concentration at 8 h: 0.00109 µg/mL
[2]; male, SD, plasma, po, 5 mg/kg, PO 5 mg/kg
  half-life: 1.48 ± 0.155 h
[2]; male, SD, plasma, po, 5 mg/kg, PO, 0.25 h, individual animals, LLOQ 1.00 ng/mL, read-out: Plasma Conc.
  concentration at 0.25 h: 0.0182 µg/mL
[2]; male, SD, plasma, po, 5 mg/kg, PO, 0.5 h, individual animals, LLOQ 1.00 ng/mL, read-out: Plasma Conc.
  concentration at 0.5 h: 0.0568 µg/mL
[2]; male, SD, plasma, po, 5 mg/kg, PO, 2 h, individual animals, LLOQ 1.00 ng/mL, read-out: Plasma Conc.
  concentration at 2 h: 0.11 µg/mL
[2]; male, SD, plasma, po, 5 mg/kg, PO, 4 h, individual animals, LLOQ 1.00 ng/mL, read-out: Plasma Conc.
  concentration at 4 h: 0.0455 µg/mL
